Experimental data published in ChEMBL document CHEMBL2384987, “Metabolites from Microcystis aeruginosa bloom material collected at a water reservoir near Kibbutz Hafetz Haim, Israel” (J Nat Prod, 2013).
Active and inactive are the calls of the source. The calls are words filed in the database; no cut-off is given here. *1 amine or outer side, *2 acyl side, *3 side chain or, on linkers, in order; H or OH if unused. Where a SMILES comes first, the peptide text is derived from it. Bridges are numbered along the chain shown (N, C = ends). [ ]: non-standard residue; d: D form. The star is where a group is joined. Propanoyl(2R-OH,3-(4-HOPh)) = O=C([C@H](O)Cc1ccc(O)cc1)*; X1 = CO[C@@H]1CC[C@H](C(=O)[*:2])N1[*:1]; NMeF = CN[C@@H](Cc1ccccc1)C(=O)O

What was measured:
Trypsin [1] = target: T1, Trypsin (Homo sapiens, UniProt P07477+P07478+P35030); assay: Inhibition of trypsin (unknown origin); type: protein assay
[2] = Inhibition of elastase (unknown origin); set-up: species or system Homo sapiens
Trypsin [3] = target: T1, Trypsin; assay: Inhibition of trypsin (unknown origin) at 45.5 uM; type: protein assay
[4] = Inhibition of chymotrypsin (unknown origin); set-up: species or system Homo sapiens
[5] = target: Prothrombin (Homo sapiens) (UniProt P00734); assay: Inhibition of thrombin (unknown origin) at 45.5 uM

IC50 (Trypsin [1]) [µM]	IC50 [2] [µM]	inhibition (Trypsin [3])	IC50 [4] [µM]	inhibition [5]	SMILES
45.5	–	–	–	–	CC(=O)O[C@@H]1CC[C@@H]2C[C@H](C(N)=O)N(C(=O)[C@@H](Cc3ccc(O)cc3)NC(=O)[C@@H](O)Cc3ccc(O)cc3)[C@@H]2C1
–	55.5	inactive	48.5	inactive	CC(C)C[C@@H]1NC(=O)[C@@H](NC(=O)[C@H](CC(N)=O)NC(=O)[C@H](O)Cc2ccc(O)cc2)[C@@H](C)OC(=O)[C@H](C(C)C)NC(=O)[C@H](Cc2ccccc2)N(C)C(=O)[C@H](CC(C)C)N2C=CC[C@H](NC1=O)C2=O
–	17.6	inactive	4.3	inactive	CC(C)C[C@@H]1NC(=O)[C@@H](NC(=O)[C@H](CC(N)=O)NC(=O)[C@H](O)Cc2ccc(O)cc2)[C@@H](C)OC(=O)[C@H](C(C)C)NC(=O)[C@H](Cc2ccccc2)N(C)C(=O)[C@H](CC(C)C)N2C(=O)[C@H](CC[C@H]2O)NC1=O
–	16.9	inactive	45.9	inactive	CO[C@@H]1CC[C@@H]2C(=O)N[C@@H](CC(C)C)C(=O)N(C)[C@@H](Cc3ccccc3)C(=O)N[C@@H](C(C)C)C(=O)O[C@H](C)[C@H](NC(=O)[C@H](CC(N)=O)NC(=O)[C@H](O)Cc3ccc(O)cc3)C(=O)N[C@@H](CC(C)C)C(=O)N21 ({Propanoyl(2R-OH,3-(4-HOPh))}-NTL[X1]L[NMeF]V; ester 2-C)
